Among the test systems are SF-295 CNS; NCI-H522 lung; MOLT-4 leukemia; ACHN renal; RXF 393 renal; SK-OV-3 ovarian; MDA-MB-435; HT29 colon; SN12C renal; SR leukemia.
Holding throughout (test): NCI tumour cell line growth inhibition, 48 h

Experimental findings from PubChem BioAssay (NCI) are described below.

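Results reflect a 48-hour exposure of cells in 96-well plates to compound at five concentrations. Definition used: TGI = concentration required for complete inhibition of growth.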 Some results are limits rather than exact numbers.

As to `CCOC(=O)c1nnsc1N/N=C\c1ccc([N+](=O)[O-])cc1`, the TGI in the experiment on SF-295 CNS, with NCI-H522 lung, in the experiment on MOLT-4 leukemia, in the experiment on ACHN renal, in the experiment on RXF 393 renal and in the experiment on SK-OV-3 ovarian was > 100 µM each time. Besides, the TGI in the experiment with MDA-MB-435, with HT29 colon and with SN12C renal was > 100 µM each time.

With `O=C1C(Br)=C(c2ccccc2)O/C1=C/C(=O)c1ccc(Br)cc1`, the TGI with NCI-H522 lung was 39.1 µM; in the experiment on MOLT-4 leukemia it was > 100 µM; in the experiment on ACHN renal it was > 100 µM; in the experiment with RXF 393 renal, 46.9 µM; in the experiment with MDA-MB-435 it was > 100 µM; in the experiment on SR leukemia, > 100 µM. The results for the TGI in the experiment with HT29 colon and with SN12C renal were > 100 µM and 26.9 µM, respectively.

`COc1ccc2nc(-c3ccccc3)cc(OCC(=O)O)c2c1`: the TGI in the experiment with SF-295 CNS, with NCI-H522 lung, in the experiment with MOLT-4 leukemia, in the experiment on ACHN renal, with SK-OV-3 ovarian and in the experiment on MDA-MB-435 was > 100 µM each time. In addition, the TGI in the experiment with SR leukemia, in the experiment with HT29 colon and in the experiment on SN12C renal was > 100 µM each time.

`COc1c(/C=C/C(C)(C)O)cc(C2CC(=O)c3c(O)cc(O)cc3O2)cc1CC=C(C)C` (stereo not drawn): the TGI in the experiment on SF-295 CNS was 14.8 µM; in the experiment on NCI-H522 lung it was 18.6 µM; in the experiment with MOLT-4 leukemia, 35 µM; in the experiment with ACHN renal it was 14.3 µM; with RXF 393 renal it was 15.3 µM; with SK-OV-3 ovarian it was 17.6 µM. The TGI in the experiment on MDA-MB-435 worked out at 15.3 µM; with HT29 colon, 16.7 µM; in the experiment on SN12C renal, 14.3 µM.

Consider `CC(=N\N)/C(C)=N/N=C(C)/C(C)=N/N`, for which the TGI with SF-295 CNS, in the experiment with NCI-H522 lung, with ACHN renal, in the experiment on RXF 393 renal, in the experiment on SK-OV-3 ovarian and with MDA-MB-435 was > 100 µM in each case. Besides, the TGI in the experiment with SR leukemia, in the experiment on HT29 colon and in the experiment on SN12C renal was > 100 µM in each case.

For `CC[C@@]1(O)C(=O)OCc2c1cc1n(c2=O)Cc2c-1nc1ccccc1c2/C=N\NC(=O)C1CCCN1` (stereo partly drawn), the TGI with SF-295 CNS was 18.6 µM; in the experiment with ACHN renal, 1.02 µM; with RXF 393 renal, 2.1 µM; with SK-OV-3 ovarian, > 100 µM; with MDA-MB-435 it was > 100 µM; in the experiment with SR leukemia, 1.73 µM. The TGI in the experiment with HT29 colon was > 100 µM; in the experiment with SN12C renal, > 48.2 µM.

Turning to `Cc1ccc(SC2C(=O)C3CC(OCc4ccccc4)C2(C)C3(C)C)cc1` (stereo not drawn), the TGI with SF-295 CNS, with MOLT-4 leukemia, in the experiment on ACHN renal, in the experiment with RXF 393 renal, with SK-OV-3 ovarian and in the experiment with MDA-MB-435 was > 100 µM each time. Besides, the TGI with SR leukemia, with HT29 colon and in the experiment with SN12C renal was > 100 µM in each case.

Take `c1ccc(C(NCC2CCO2)(c2ccccc2)c2ccccc2)cc1` (stereo not drawn): the TGI is 28.9 µM with SF-295 CNS; 28.1 µM with NCI-H522 lung; > 100 µM in the experiment on MOLT-4 leukemia; 29 µM in the experiment on ACHN renal; 35 µM in the experiment with RXF 393 renal; 34.2 µM with SK-OV-3 ovarian. The TGI in the experiment with MDA-MB-435 was 46 µM; in the experiment with SR leukemia it was > 100 µM; in the experiment with SN12C renal it was 51.3 µM.

As for `COC(=O)C1Cc2cc3c(cc2C1=O)CCCC3` (stereo not drawn), the TGI in the experiment with SF-295 CNS, with NCI-H522 lung, in the experiment on MOLT-4 leukemia, with ACHN renal, in the experiment with SK-OV-3 ovarian and in the experiment with MDA-MB-435 was > 100 µM in each case. Also, the TGI with SR leukemia, with HT29 colon and with SN12C renal was > 100 µM in each case.

Regarding `CC1(C)OC2[C@@H](CO[C@@]3([C@@H](O)CCO)OC(C)(C)O[C@@H]23)O1` (stereo partly drawn), the TGI with SF-295 CNS, in the experiment with NCI-H522 lung, with MOLT-4 leukemia, in the experiment on ACHN renal, with RXF 393 renal and in the experiment with MDA-MB-435 was > 100 µM in each case. For the same molecule, the TGI with SR leukemia, in the experiment on HT29 colon and in the experiment on SN12C renal was > 100 µM in each case.

`Cc1cc2/c(=C\c3ccc(N(C)C)cc3)c3ccccc3n2[n+]1C`: the TGI with SF-295 CNS came to 12.8 µM; in the experiment with NCI-H522 lung, 1.99 µM; in the experiment on MOLT-4 leukemia, 1.32 µM; in the experiment on ACHN renal, 10 µM; in the experiment with RXF 393 renal, 10.4 µM; in the experiment on SK-OV-3 ovarian, 14.3 µM. In addition, the TGI with MDA-MB-435 was found to be 1.84 µM; in the experiment with HT29 colon, 9.03 µM; in the experiment with SN12C renal, 1.65 µM.

Take `C=C1C(=O)O[C@H]2C[C@@]3(COC(C)=O)C=COC=C(COC(=O)C(C)C)C3CC12` (stereo partly drawn): the TGI in the experiment with SF-295 CNS, in the experiment on NCI-H522 lung, in the experiment with MOLT-4 leukemia, with ACHN renal, in the experiment with RXF 393 renal and in the experiment with MDA-MB-435 was > 100 µM in each case. Further, the TGI was 91.8 µM with SR leukemia, > 100 µM in the experiment with HT29 colon and > 100 µM in the experiment with SN12C renal.

On to `CSc1ccc(-c2cc(-c3nc4ccccc4[nH]3)no2)cc1`, for which the TGI was > 100 µM with SF-295 CNS; 69.5 µM in the experiment with NCI-H522 lung; 37.2 µM in the experiment on MOLT-4 leukemia; > 100 µM in the experiment with ACHN renal; > 100 µM with SK-OV-3 ovarian; 44.7 µM in the experiment with MDA-MB-435. In addition, the figures for the TGI in the experiment on SR leukemia, in the experiment on HT29 colon and with SN12C renal were > 100 µM, 62.1 µM and > 100 µM, respectively.

On to `COC(CN(C(C)=O)C1CCC2(SCCS2)c2[nH]c3ccccc3c21)OC` (stereo not drawn), for which the TGI with NCI-H522 lung, in the experiment with MOLT-4 leukemia, with ACHN renal, in the experiment on RXF 393 renal, in the experiment with MDA-MB-435 and in the experiment on SR leukemia was > 100 µM in each case. The TGI in the experiment with HT29 colon and in the experiment on SN12C renal was > 100 µM each time.
